Results reported in EP4140481A1, “PROTEIN-OLIGOMER BINDING AGENTS AND THERAPEUTIC USES THEREOF” (Galyan Bio, Inc., priority 2021, dated 2023).
Several values for one entry are separate records, joined by “and”; a condition that tells them apart may be missing. Identical values can stand only once.

Columns and labels:
phospho-Tau (Ser396) = molecular target: T1, phospho-Tau (Ser396) (Mus musculus, UniProt P10637); test: Phospho-Tau (Ser396) immunocytochemistry in STHdh 7/7 cells; type: cell-based; details: for Phospho-Tau (Ser396) reduction: heat shocked 3 hours, versus untreated STHdh 7/7
T1 construct: host or cells: ST HDH Q7/7 mouse striatal cell line
T1 sequence (P10637 whole entry): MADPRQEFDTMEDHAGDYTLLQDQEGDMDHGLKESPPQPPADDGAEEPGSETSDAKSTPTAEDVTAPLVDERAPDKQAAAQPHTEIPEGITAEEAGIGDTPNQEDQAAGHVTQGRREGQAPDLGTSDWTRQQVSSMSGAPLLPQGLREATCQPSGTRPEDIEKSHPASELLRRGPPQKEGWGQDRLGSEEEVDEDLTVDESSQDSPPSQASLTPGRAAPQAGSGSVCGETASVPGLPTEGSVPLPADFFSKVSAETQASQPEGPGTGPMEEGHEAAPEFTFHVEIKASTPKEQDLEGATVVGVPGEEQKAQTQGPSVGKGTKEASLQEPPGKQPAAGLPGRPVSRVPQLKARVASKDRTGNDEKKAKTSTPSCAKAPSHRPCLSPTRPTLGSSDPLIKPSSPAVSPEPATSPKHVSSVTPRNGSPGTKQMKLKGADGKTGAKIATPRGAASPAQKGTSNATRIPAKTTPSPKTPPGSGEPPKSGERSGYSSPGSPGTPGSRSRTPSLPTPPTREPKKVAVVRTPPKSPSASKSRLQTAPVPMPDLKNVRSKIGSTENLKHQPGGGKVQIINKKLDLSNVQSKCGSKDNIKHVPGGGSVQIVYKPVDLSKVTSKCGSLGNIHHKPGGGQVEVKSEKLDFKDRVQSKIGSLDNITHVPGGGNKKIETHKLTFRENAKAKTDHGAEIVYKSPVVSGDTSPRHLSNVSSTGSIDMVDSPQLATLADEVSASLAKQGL
Procedure: Effect of Compound 4 on Phospho-Tau (Ser396) levels - ST HDH Q7/7 (CH00097, Coriell Institute) striatal derived cell line from a knock in transgenic mouse containing HTT loci with a humanized Exon 1 containing 7 polyglutamine repeats. Immunocytochemistry was conducted as described in Example 33 with the exception that instead of 3B5H10 antibody for staining mHTT, phospho-Tau (Ser396) polyclonal antibody (ThermoFisher, Catalog 44-752G) was used to stain phospho-Tau (Ser396).

Htt Exon-1 Q46 = molecular target: T2, Htt Exon-1 Q46 (Homo sapiens, UniProt P42858, INS38QQQQQQQQQQQQQQQQQQQQQQQQQ); test: Dynamic Light Scattering (DLS), induced aggregation; type: biochemical
T2 construct: Futher experiments were made with Htt Exon-1 Q16 and Q46
T2 sequence (P42858 with tags, fused parts or gaps with the stated changes): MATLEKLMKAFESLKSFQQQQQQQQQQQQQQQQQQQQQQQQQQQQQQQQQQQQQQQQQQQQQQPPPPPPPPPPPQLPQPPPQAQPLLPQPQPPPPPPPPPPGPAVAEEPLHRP
Procedure: (§1) Proteins were ultracentrifuged with 50,000 rpm (rounds per minute) for one hour at 2 °C. The supernatant was used for DLS measurements. DLS measurements were conducted with Malvern Zetasizer Nano (Malvern Panalytical Ltd, United Kingdom).
(§2) Futher experiments were made with Htt Exon-1 Q16 and Q46. Table 28 Size Distribution (Volume and Number) of Q16 under various conditions

Htt Exon-1 Q16 = Htt Exon-1 Q16 (Homo sapiens, UniProt P42858, DEL34-38); test: as above; type: biochemical
Htt Exon-1 Q16, sequence (P42858 with tags, fused parts or gaps DEL34-38): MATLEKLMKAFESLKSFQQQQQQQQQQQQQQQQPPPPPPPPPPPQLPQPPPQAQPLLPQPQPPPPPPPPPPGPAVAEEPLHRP
Procedure: as §1, §2

mHTT = test: Immunohistochemistry of nuclear diffuse mHTT in brain tissue from the R6/2 study; type: in vivo, R6/2 mice; details: 33 mg/kg i.p. QD; treated animals n= 9 versus vehicle treated TG mice; p = 0.01
Procedure: Preparation of Immunohistology slides - Brain tissue collected within the animal study was prepared for IHC studies by Charles River staff. The brains were fixed by immersion in 4% paraformaldehyde for at least 24 h after which brain samples were cryoprotected by 30% sucrose solution for 72 h. Finally, the brain samples were flash-frozen in liquid nitrogen and stored at -80 °C. The brain samples were cut using a microtome cryostat system, producing coronal brain tissue sections of 40 µm thickness. Those were mounted on individual adhesive-coated microscope glass slides with frosted ends.
Staining - Goat anti-Rabbit IgG (H+L) Alexa Fluor 647 (1:500, ThermoFisher Invitrogen) was used as a secondary antibody for binding to CBP antibody. […]
The blocking buffer was freshly prepared and consisted of PBS (Sigma-Aldrich) with 5% normal goat serum (NGS), 0.2% BSA, 0.2% lysine and 0.2% glycine. […] On day six, samples were washed and then incubated with DAPI containing mounting medium Fluoroshield (Sigma-Aldrich), in order to counterstain the nuclei and preserve the fluorescence. […]
Results - Figures 23A-23F show the distinction of inclusion bodies (IB) and diffuse species of mHTT by confocal fluorescence imaging. […] Consequently, this distinction of diffuse mHTT and IBs was implemented in the analysis macro to quantify the different species of mHTT within striatum and cortex of R6/2 mice. […]

[1] = tested on: STHdh 111/111 striatal cells; test: Cell viability after heat shock (CellTiter Glo); details: heat shocked STHdh 111/111 versus STHdh 7/7 control cells
Procedure: Cell culture - ST HDH Q111/111 (CH00095, Coriell Institute) striatal derived cell line were grown at 33°C in DMEM (Sigma-Aldrich), supplemented with 10% fetal bovine serum (FBS), 1% Penicillin-Streptomycin (ThermoFisher Scientific), and 0.4 mg/ml G418 (Geneticin; Invitrogen). ST HDH Q111/111 are mouse striatal cells with polyQ length of 111.
Pre-Treatment of striatal cell line - First the medium was removed and new DMEM (DMEM, high glucose, HEPES, no phenol red) medium, supplemented with 10% fetal bovine serum (FBS), 1% Penicillin-Streptomycin, containing 10 µM compound was added. The cells were incubated at 33 °C for 24 hours.
Heat shock - Cells were heat shocked for 3 hours at 41 °C.
Treatment - Medium was removed and new DMEM (DMEM, high glucose, HEPES, no phenol red) medium, supplemented with 1% fetal bovine serum (FBS), 1% Penicillin-Streptomycin, containing 10 µM compound was added. The cells were incubated at 33 °C for 48 hours.
Cell Viability - Cell viability was measured according to manufacturer recommendations with CellTiter Glo (Promega).

[2] = by intensity, equimolar Compound 4
[3] = by number, equimolar Compound 4
[4] = by volume, equimolar Compound 4

Row | Compound | Phospho-Tau (Ser396) reduction with autophagy inhibitor (phospho-Tau (Ser396); 5 µM, 10 mM ammonium chloride) | Phospho-Tau (Ser396) reduction (phospho-Tau (Ser396); 5 µM) [%] | inhibition at 10 µM (phospho-Tau (Ser396); 10 µM, 10 mM ammonium chloride, read-out: Phospho-Tau (Ser396) reduction with autophagy inhibitor) [%] | Phospho-Tau (Ser396) reduction (phospho-Tau (Ser396); 10 µM) [%] | % Intensity, Peak 1 (Htt Exon-1 Q46; [2]) [%] | % Intensity, Peak 2 (Htt Exon-1 Q46; [2]) [%] | % Intensity, Peak 3 (Htt Exon-1 Q46; [2]) | Size, Peak 1 (Htt Exon-1 Q46; [2]) [nm] | Size, Peak 2 (Htt Exon-1 Q46; [2]) [nm] | Size, Peak 3 (Htt Exon-1 Q46; [2]) [nm] | assembly state of Q46 (Htt Exon-1 Q46; exposed to Compound 4) | % Number, Peak 1 (Htt Exon-1 Q16; [3]) [%] | Size, Peak 1 (Htt Exon-1 Q16; [3]) | % Volume, Peak 1 (Htt Exon-1 Q16; [4]) [%] | % Volume, Peak 2 (Htt Exon-1 Q16; [4]) [%] | Size, Peak 1 (Htt Exon-1 Q16; [4]) [nm] | Size, Peak 2 (Htt Exon-1 Q16; [4]) [nm] | assembly state of Q16 (Htt Exon-1 Q16; exposed to Compound 4) | Nuclear diffuse mHTT reduction in the cortex (mHTT) [%] | cell viability at 24 hours after treatment [1]
1 | CCc1c(C)[nH]c2ccc(C(=O)NCCN(CC)CC)cc12 [Compound 4, N-(2-(diethylamino)ethyl)-3-ethyl-2-methyl-1H-indole-5-carboxamide] | could not reduce | 20 | 15.2 | 26.3 | 83.1 | 12.9 | 4,1% | 178.7 | 9.275 | 3917 | assembles as mostly aggregates and larger aggregates | 100 | 6.0 nm and 6.063 nm | 0.2 | 99.8 | 93.12 | 6.949 | mainly monomeric | – | –
2 | Cc1[nH]c2ccc(C(=O)NCCN(C(C)C)C(C)C)cc2c1C [Compound 22] | – | – | – | – | – | – | – | – | – | – | – | – | – | – | – | – | – | – | 40 | almost equivalent to the cell viability of STHdh 7/7 control cells
